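96-well plates; 48 h exposure; 5 concentrations. Endpoints by linear interpolation between flanking doses. Not reached: highest tested concentration assigned. Here, GI50 denotes the concentration required for 50% inhibition of growth.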 The source made the active and inactive calls. Rule as the data show it: active = GI50 up to about 1.1 µM and inactive = higher.
Tests used:
Test in all cases: NCI anticancer screen, dose series, 48 h
[1] = system: MDA-MB-231
[2] = system: SF-539
[3] = system: UACC-62
[4] = system: Malme-3M
[5] = system: SNB-75
[6] = system: SW-620
[7] = system: MDA-MB-435
[8] = system: NCI-H23
[9] = system: NCI/ADR-RES
[10] = system: SNB-19
[11] = system: HCC 2998
[12] = system: COLO 205
[13] = system: NCI-H460
[14] = system: SK-MEL-28
[15] = system: A498
[16] = system: MOLT-4
[17] = system: OVCAR-8
[18] = system: HOP-92
[19] = system: UACC-257
[20] = system: RXF 393

Measured: GI50

O=S(=O)(CCn1c(Sc2ccccc2)c(Sc2ccccc2)c2ccccc21)c1ccccc1
inactive: [1] > 100 µM | [2] > 100 µM | [3] > 100 µM | [4] > 100 µM | [5] > 100 µM | [6] > 100 µM | [7] > 100 µM | [8] > 100 µM | [9] > 100 µM | [10] > 100 µM | [11] > 100 µM | [12] > 100 µM | [13] > 100 µM | [14] > 100 µM | [15] > 100 µM | [16] > 100 µM | [17] > 100 µM

CN(/N=C/C=N/N(C)C1=NCCCN1)C1=NCCCN1
inactive: [1] > 100 µM | [2] > 100 µM | [3] > 100 µM | [4] > 100 µM | [5] > 100 µM | [6] > 100 µM | [7] > 100 µM | [8] > 100 µM | [9] > 100 µM | [18] > 100 µM | [10] > 100 µM | [11] > 100 µM | [12] > 100 µM | [13] > 100 µM | [19] > 100 µM | [14] > 100 µM | [20] > 100 µM | [16] > 100 µM | [17] > 100 µM

CC1(CC(=O)OC(C#C[Si](C)(C)C)Cc2ccccc2)OCCO1 (stereo not drawn)
inactive: [1] > 100 µM | [2] > 100 µM | [3] > 100 µM | [4] > 100 µM | [5] > 100 µM | [6] > 100 µM | [7] > 100 µM | [8] > 100 µM | [9] > 100 µM | [10] > 100 µM | [12] > 100 µM | [19] > 100 µM | [14] > 100 µM | [15] > 100 µM | [20] > 100 µM | [16] > 100 µM | [17] > 100 µM

COC(=O)c1ccccc1C1CN=NC12Cc1ccccc1C2=O (stereo not drawn)
inactive: [1] 78 µM | [2] > 100 µM | [3] 42.1 µM | [4] 74.5 µM | [5] 43.6 µM | [6] > 100 µM | [7] 42.6 µM | [8] > 100 µM | [9] 46.8 µM | [18] 34 µM | [10] > 100 µM | [11] > 100 µM | [12] > 100 µM | [13] > 100 µM | [19] > 100 µM | [14] 77.6 µM | [20] > 100 µM | [16] 41.7 µM | [17] 59.6 µM

CN(C)P(=O)(Oc1occc1C(O)Cc1ccccc1)N(C)C (stereo not drawn)
inactive: [1] > 100 µM | [2] > 100 µM | [4] > 100 µM | [5] > 100 µM | [6] > 100 µM | [7] > 100 µM | [8] > 100 µM | [9] > 100 µM | [10] > 100 µM | [11] > 100 µM | [12] > 100 µM | [13] > 100 µM | [19] > 100 µM | [14] > 100 µM | [15] > 100 µM | [20] > 100 µM | [17] > 100 µM

COc1ccc2c(c1)-c1c(c3ccccc3n1CCN1CCOCC1)CC2
inactive: [1] 18.9 µM | [2] 25 µM | [3] 18.8 µM | [4] 14.6 µM | [5] 10.8 µM | [6] 32.1 µM | [7] 34.5 µM | [8] 21.7 µM | [9] 11.7 µM | [18] 36.6 µM | [10] 21 µM | [11] 18.2 µM | [12] 16 µM | [13] 16.8 µM | [19] 36.7 µM | [14] 55.1 µM | [16] 13 µM | [17] 16 µM

COc1cc(OC)cc(OCc2nc3cc(C(F)(F)F)ccc3nc2-c2ccccc2)c1
inactive: [1] 76.4 µM | [2] > 100 µM | [3] > 100 µM | [4] > 100 µM | [5] > 100 µM | [6] > 100 µM | [7] > 100 µM | [8] > 100 µM | [9] > 100 µM | [18] > 100 µM | [10] > 100 µM | [11] > 100 µM | [12] > 100 µM | [13] > 100 µM | [19] > 100 µM | [14] > 100 µM | [20] > 100 µM | [16] > 100 µM | [17] > 100 µM

CCCOC(=O)NC(C)C(=O)NC(CCC(=O)NC(CCCC(N)C(=O)O)C(=O)NC(C)C(=O)O)C(=O)O (stereo not drawn)
inactive: [1] 19.3 µM | [2] 14.8 µM | [3] 18.6 µM | [6] 23 µM | [7] 56.8 µM | [8] > 100 µM | [9] 19.2 µM | [18] 29.5 µM | [10] 27.7 µM | [11] 17.1 µM | [12] 27.2 µM | [13] 38.7 µM | [19] > 10 µM | [14] 19.4 µM | [15] > 100 µM | [16] 23 µM | [17] 17.9 µM

CCN(C(=O)N[C@@H](Cc1ccccc1)C(=O)N[C@@H](CC(C)C)C(=O)NC)c1ccccc1
inactive: [1] > 100 µM | [2] > 100 µM | [3] > 100 µM | [4] > 100 µM | [5] 95.3 µM | [6] > 100 µM | [7] > 100 µM | [8] > 100 µM | [9] > 100 µM | [18] > 100 µM | [10] > 100 µM | [11] > 100 µM | [12] > 100 µM | [13] > 100 µM | [19] > 100 µM | [14] > 100 µM | [20] > 100 µM | [16] > 100 µM | [17] > 100 µM

O=[N+]([O-])c1ccc(NN=C2CN3CCN(C2)c2ccccc23)c([N+](=O)[O-])c1
inactive: [1] > 100 µM | [2] > 100 µM | [3] > 100 µM | [4] > 100 µM | [6] > 100 µM | [7] > 100 µM | [8] > 100 µM | [9] > 100 µM | [18] 85.3 µM | [10] > 100 µM | [11] > 100 µM | [12] > 100 µM | [13] > 100 µM | [19] > 100 µM | [14] > 100 µM | [15] > 100 µM | [16] > 100 µM | [17] > 100 µM

O=C1C2C(C(=O)N1c1ccccc1)C1(c3ccccc3)CCC2(C(=O)c2ccccc2)O1 (stereo not drawn)
inactive: [1] > 10 µM | [2] > 10 µM | [3] > 10 µM | [4] > 10 µM | [6] > 10 µM | [7] > 10 µM | [8] > 10 µM | [9] > 10 µM | [10] > 10 µM | [11] > 10 µM | [12] > 10 µM | [13] > 10 µM | [19] > 10 µM | [14] > 10 µM | [15] > 10 µM | [20] > 10 µM | [16] 9.82 µM | [17] > 10 µM

Reference: ChEMBL document CHEMBL1201862, “PubChem BioAssay data set” (2004)
